This note sets out measurements from the NIST ThermoML archive (doi:10.1016/j.fluid.2010.05.018).

For the data set the following is noted: 298.15 K; 101.33 kPa; Liquid; Vibrating tube method.

Numbers after ± are expanded uncertainties.

`FC(F)(F)C(F)(F)C(F)(F)C(F)(F)C(F)(F)C(F)(F)C(F)(F)C(F)(F)F` [octadecafluorooctane]: the mass density (commonly mass per unit of volume) was 1754.28 ± 0.44 kg/m3.
As to `FC(F)(F)C(F)(F)C(F)(F)C(F)(F)C(F)(F)C(F)(F)F` [perfluorohexane], the mass density came out at 1670.07 ± 0.32 kg/m3.
